Measured values reported in PubChem BioAssay (NCI).
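1) Cells in 96-well plates. 2) Compound, 48 h, 5 concentrations. 3) Linear interpolation between surrounding doses. 4) Unreached endpoint = highest concentration. GI50 = concentration required for 50% inhibition of growth. Definition used: TGI = concentration required for complete inhibition of growth.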

Legend:
Assay in all cases: inhibition of tumour cell growth, NCI panel, 48 h
[1] = test system: MDA-MB-435
[2] = test system: SK-OV-3 ovarian
[3] = test system: SK-MEL-28 melanoma
[4] = test system: COLO 205 colon
[5] = test system: HCC-2998 colon
[6] = test system: MCF7 breast
[7] = test system: IGROV1 ovarian
[8] = test system: SN12C renal
[9] = test system: KM12 colon
[10] = test system: SNB-19 CNS
[11] = test system: SF-295 CNS
[12] = test system: TK-10 renal
[13] = test system: OVCAR-4 ovarian
[14] = test system: SF-268 CNS
[15] = test system: SR leukemia
[16] = test system: MDA-MB-231 breast
[17] = test system: BT-549 breast
[18] = test system: OVCAR-3 ovarian
[19] = test system: K-562 leukemia
[20] = test system: SNB-75 CNS
[21] = test system: HOP-62 NSCLC
[22] = test system: HL-60(TB) leukemia
[23] = test system: SK-MEL-2 melanoma
[24] = test system: NCI-H23 lung
[25] = test system: LOX IMVI melanoma
[26] = test system: CAKI-1 renal
[27] = test system: UACC-62 melanoma
[28] = test system: NCI-H460 lung
[29] = test system: UACC-257 melanoma
[30] = test system: T-47D breast
[31] = test system: RPMI-8226 leukemia
[32] = test system: ACHN renal
[33] = test system: HOP-92 NSCLC
[34] = test system: HT29 colon
[35] = test system: SK-MEL-5 melanoma
[36] = test system: SF-539 CNS
[37] = test system: OVCAR-8 ovarian
[38] = test system: RXF 393 renal
[39] = test system: MOLT-4 leukemia
[40] = test system: A549 NSCLC
[41] = test system: EKVX NSCLC
[42] = test system: OVCAR-5 ovarian
[43] = test system: PC-3 prostate
[44] = test system: MALME-3M melanoma
[45] = test system: 786-0 renal
[46] = test system: M14 melanoma
[47] = test system: UO-31 renal
[48] = test system: HCT-116 colon
[49] = test system: DU-145 prostate
[50] = test system: HS 578T breast
[51] = test system: SW-620 colon
[52] = test system: NCI/ADR-RES ovarian
[53] = test system: HCT-15 colon
[54] = test system: U251 CNS
[55] = test system: NCI-H522 lung
[56] = test system: CCRF-CEM leukemia
[57] = test system: NCI-H226 lung

**Q.** What does the source list for CC(C)=CCc1c2c(c(O)c3c1O[C@]14C(=C[C@@H]5C[C@H]1C(C)(C)O[C@@]4(C/C=C(/C)C(=O)O)C5=O)C3=O)CC(O)C(C)(C)O2 (some centres undefined)?
**A.** GI50 [1]: 18.9 µM; TGI [1]: 51.8 µM; GI50 [2]: 40.6 µM; TGI [2]: > 100 µM; GI50 [3]: 19.7 µM; TGI [3]: 47.6 µM; GI50 [4]: 20.2 µM; TGI [4]: 43.4 µM; GI50 [5]: 17.7 µM; TGI [5]: 32.9 µM; GI50 [6]: 9.1 µM; TGI [6]: 52.4 µM; GI50 [7]: 20.3 µM; TGI [7]: 64.1 µM; GI50 [8]: 18.9 µM; TGI [8]: 51 µM; GI50 [9]: 18.6 µM; TGI [9]: 39.6 µM; GI50 [10]: 17.7 µM; TGI [10]: 40.4 µM; GI50 [11]: 27.9 µM; TGI [11]: 87 µM; GI50 [12]: 23.8 µM; TGI [12]: 41.1 µM; GI50 [13]: 24.4 µM; TGI [13]: 86.8 µM; GI50 [14]: 14.7 µM; TGI [14]: 34.5 µM; GI50 [15]: 7.8 µM; TGI [15]: > 100 µM; GI50 [16]: 26.5 µM; TGI [16]: 92.2 µM; GI50 [17]: 12.4 µM; TGI [17]: 26.4 µM; GI50 [18]: 14.5 µM; TGI [18]: 28 µM; GI50 [19]: 11.6 µM; TGI [19]: > 100 µM; GI50 [20]: 21.3 µM; TGI [20]: 64.1 µM; GI50 [21]: 20.6 µM; TGI [21]: 42.5 µM; GI50 [22]: 27.9 µM; TGI [22]: 68 µM; GI50 [23]: 16.6 µM; TGI [23]: 34.7 µM; GI50 [24]: 17.7 µM; TGI [24]: 48.4 µM; GI50 [25]: 11.2 µM; TGI [25]: 25.2 µM; GI50 [26]: 19.9 µM; TGI [26]: 57 µM; GI50 [27]: 15.5 µM; TGI [27]: 34.8 µM; GI50 [28]: 16.7 µM; TGI [28]: 39.6 µM; GI50 [29]: 19.4 µM; TGI [29]: 43.8 µM; GI50 [30]: 19 µM; TGI [30]: 58.8 µM; GI50 [31]: 10.1 µM; TGI [31]: 53.6 µM; GI50 [32]: 27.7 µM; TGI [32]: 85.7 µM; GI50 [33]: 22.1 µM; TGI [33]: 48.9 µM; GI50 [34]: 22 µM; TGI [34]: 62.4 µM; GI50 [35]: 15 µM; TGI [35]: 30.3 µM; GI50 [36]: 20.7 µM; TGI [36]: 46.5 µM; GI50 [37]: 18 µM; TGI [37]: 45.1 µM; GI50 [38]: 19 µM; TGI [38]: 38.2 µM; GI50 [39]: 17.3 µM; TGI [39]: 65.1 µM; GI50 [40]: 31 µM; TGI [40]: 78.1 µM; GI50 [41]: 21.6 µM; TGI [41]: 69.8 µM; GI50 [42]: 28.6 µM; TGI [42]: 74 µM; GI50 [43]: 19.8 µM; TGI [43]: 49.1 µM; GI50 [44]: 21.9 µM; TGI [44]: 52.5 µM; GI50 [45]: 19.7 µM; TGI [45]: 38 µM; GI50 [46]: 14.7 µM; TGI [46]: 34.7 µM; GI50 [47]: 14.8 µM; TGI [47]: 32.7 µM; GI50 [48]: 13.2 µM; TGI [48]: 26.7 µM; GI50 [49]: 20.8 µM; TGI [49]: 48.1 µM; GI50 [50]: 14.1 µM; TGI [50]: 86 µM; GI50 [51]: 13.2 µM; TGI [51]: 33.2 µM; GI50 [52]: 30.9 µM; TGI [52]: > 100 µM; GI50 [53]: 22.6 µM; TGI [53]: > 100 µM; GI50 [54]: 15 µM; TGI [54]: 30.1 µM; GI50 [55]: 14.9 µM; TGI [55]: 28.4 µM; GI50 [56]: 5.76 µM; TGI [56]: 40.9 µM; GI50 [57]: 23.8 µM; TGI [57]: 72.7 µM
